Measurements published in patent US9259482B2, “Conjugates of polymers having a therapeutically active agent and an angiogenesis targeting moiety attached thereto and uses thereof in the treatment of angiogenesis related diseases” (Ramot at Tel-Aviv University Ltd., priority 2008, dated 2016).
Where two headings read alike, the source gives them in different places.

Legend:
HUVEC [1] = assay: cells; format: cell-based, human
Experimental: (§1) The anti-angiogenesis and anti-proliferative activity of the conjugates described herein was evaluated by the effect of the conjugates on the proliferation of HUVEC, U87 and PANC02 cells.
(§2) HUVEC were plated onto 24-well plate (1×10^4 cells/well) in endothelial cell basal medium 2 (EBM-2; Cambrex, USA) supplemented with 5% fetal bovine serum (FBS). Following 24 hours of incubation (37° C.; 5% CO2) medium was replaced with Endothelial cell growth medium-2 (EGM-2; Cambrex, USA). U87 and PANC02 cells were plated onto 96 well plate (2×10^3 cells/well) in DMEM supplemented with 5% FBS and incubated for 24 hours (37° C.; 5% CO2). Following 24 hours of incubation the medium was replaced with DMEM containing 10% FBS. Cells were challenged with the tested compounds at serial concentrations for 72 hours. After incubation the number of HUVEC were counted by Coulter Counter and U87, and PANC02 cells were counted by XTT respectively.

HUVEC [2] = assay: Capillary-like tube formation assay; format: cell-based, human; details: equivalent concentrations of 10 nM (PTX) and 19 nM (E-[c(RGDfk)2]); conjugate with 5 mol % E-[c(RGDfk)2], 2.6 mol % PTX; FIG. 16B
Experimental: The anti-angiogenesis activity of the conjugates was evaluated by the effect of the conjugates on the ability of HUVEC cells to form capillary-like tube structures.
The surface of 24-well plates was coated with Matrigel matrix (50 μl/well) (BD Biosciences, USA) on ice and was then allowed to polymerize at 37° C. for 30 minutes. HUVEC (3×10^4 cells) were challenged with the tested compounds, and were seeded on coated plates in the presence of complete EGM-2 medium. After 8 hours of incubation (37° C.; 5% CO2), wells were imaged using Nikon TE2000E inverted microscope integrated with Nikon DS5 cooled CCD camera by 4× objective, brightfield technique. During the tube formation assay endothelial cells directionally migrate to align, branch and form polygonal networks (i.e. tube like structures). The extent of capillary-like tube structures is inversely proportional to the anti-angiogenesis activity of the compounds.

Cathepsin B = Cathepsin B (Homo sapiens, UniProt P07858); assay: Release of PTX from conjugates in the presence of Cathepsin B; format: in vitro ADME
Experimental: The ability of Cathepsin B to cleave and therefore release PTX from PGA copolymer-E-c(RGDfk)2-PTX (SEQ ID NO:18) was assessed as follows:
Cathepsin B (5 U) was added last to a 1 ml solutions containing 3 mg of the tested conjugates and 20 mM sodium acetate, 2 mM EDTA and 5 mM DTT at a pH of 6 and at a temperature of 37° C. Solutions containing free PGA polymer and free PTX served as control. Sample aliquots (100 μl) were taken at various time points up to 72 hours, frozen and stored in liquid nitrogen, until assayed by HPLC (by Porous50 resin) and/or by Gel permeation chromatography (GPC; direct analysis of 50 μl aliquots). PGA polymer incubated in buffer alone (without addition of cathepsin B) served as an additional control to assess non-enzymatic hydrolytic cleavage. The amount of free PTX released from the tested compounds was assessed by HPLC (X=220 nm). Doxycycline was used as internal standard in all cases. In addition, an LC-MS analysis of the released compounds was also carried out to in order determine the major metabolites released. The MW of the conjugates was determined by diluting 50 μl aliquots of the conjugate containing solution to a final volume of 200 μl with PBS buffer and subjecting the aliquots to GPC analysis (Viscotek TDA detector).

HUVEC [3] = assay: Migration assay of HUVEC towards VEGF; format: cell-based, human; details: equivalent concentrations of 100 nM PTX; conjugate with 5 mol % E-[c(RGDfk)2], 2.6 mol % PTX; FIG. 14
Experimental: The anti-angiogenesis activity of the conjugates was evaluated by examining the effect of the conjugates on the ability of HUVEC to migrate toward the Vascular Endothelial Growth Factor (VEGF).
Cell migration assay was performed using modified 8 μm Boyden chambers Transwells® (Costar Inc., USA) coated with 10 μg/ml fibronectin HUVEC (15×10^4 cells/100 μl) were challenged with the tested compounds that were added to the upper chamber of the transwells for 2 hours. Following incubation, cells were allowed to migrate to the underside of the chamber for 4 hours in the presence or absence of VEGF (20 ng/ml) in the lower chamber. Cells were then fixed and stained (Hema 3 Stain System; Fisher Diagnostics, USA). The stained migrated cells were imaged using Nikon TE2000E inverted microscope integrated with Nikon DS5 cooled CCD camera by 10× objective, brightfield illumination. Migrated cells from the captured images per membrane were counted using NIH image software. Migration was normalized to the percent of migration toward VEGF of HUVEC which were not incubated with any compound. The extent of migration is inversely proportional to the anti-angiogenesis activity of the compounds.

HUVEC [4] = assay: Endothelial cell adhesion assay on fibrinogen coated plates; format: cell-based, human
Experimental: The ability of E-[c(RGDfk)2] and E-c(RGDfk) moieties (SEQ ID NOs: 2 and 41) in the conjugates to inhibit endothelial attachment to cellular matrix after conjugation, was assessed using an adhesion assay. Flat bottom 96-well culture plates (Nunc, Denmark) were coated with 0.5 μg/well fibrinogen overnight at 4° C. After washing three times with Phosphate buffered saline (PBS), the wells were blocked with 1% bovine serum albumin (BSA) for 1 hour at 37° C. and washed three times again with PBS. HUVEC were harvested in phosphate-buffered saline (137 mM NaCl, 2.7 mM KCl, 4.3 mM Na2HPO4, 1.4 mM KH2PO4, pH 7.3) with 2.5 mM EDTA and resuspended in EBM-2 serum-free media (Clonetics). HUVEC were incubated for 30 minutes, at room temperature, with the tested compounds. The treated HUVEC were plated at 5×10^4 cells per well and were allowed to attach for 1 hour at 37° C. After incubation, the unattached cells were removed by rinsing the wells with PBS. The attached cells were fixed with 3.7% formaldehyde, stained with 0.5% crystal violet and were imaged using Nikon TE2000E inverted microscope integrated with Nikon DS5 cooled CCD camera by 4× objective, brightfield technique. The number of attached cells was quantified with NIH ImageJ processing and analysis software. Non-specific binding was determined by adhesion of HUVEC cells, which were not incubated with any of the tested compounds, to BSA-coated plates.

[5] = tested on: PANC02 murine pancreatic tumor cells; assay: Cell proliferation assay, PANC02; format: cell-based
Experimental: as §1, §2

[6] = tested on: mCherry-labeled U87 human osteosarcoma tumors; assay: In vivo accumulation of OG-labeled conjugates in tumors, confocal microscopy; parameters: species or system SCID mice; details: i.v., 50 μM-RGD; tumors removed one hour after injection; FIG. 17A
From the text: SCID male were inoculated s.c. with 2×10^6 mCherry-labeled U87 human […] or with 5×10^6 mCherry-labeled MG-63 human osteosarcoma. […] One hour after injection, tumors were removed, dissected to thin slices and examined under Zeiss Meta LSM 510 confocal imaging system.
Cellular colocalization of OG labeled PGA-E-[c(RGDfk)2] (SEQ ID NO: 25) conjugate was monitored utilizing a Zeiss Meta LSM 510 confocal imaging systems with 40 oil objectives. All images were taken using a multi-track channel acquisition to prevent emission cross-talk between fluorescent dyes. Single XY, XZ plane-images were acquired in 1024×1024 resolution.

αvβ3 integrin receptor = target: T1, αvβ3 integrin receptor (Homo sapiens, UniProt P05106+P06756); assay: αvβ3 interaction with fluorescently labeled conjugates in HUVEC; format: cell-based
T1 construct: endogenous in cells; host or cells: HUVEC
Experimental: A fluorescence probe, Oregon Green-cadaverine (OG), was conjugated to PGA conjugates through the free carboxylic groups (see Example 5 for synthesis description), in order to study the cellular uptake and trafficking.
HUVEC were plated onto 6 mm plates (5×10^5 cells/plate) in EBM-2 (Cambrex, USA) supplemented with 5% FBS. Following 24 hours of incubation (37° C.; 5% CO2), cells were challenged with either PGA-OG, PGA-c(RADfk)-OG (SEQ ID NO: 24) or PGA-E-[c(RGDfk)2]-OG (SEQ ID NO:25) diluted in EGM-2 medium for 5, 10, 15, 30 or 60 minutes. Cells were then washed in PBS (×3), harvested with PBS containing 2.5 mM EDTA and analyzed with the ImageStream 100 imaging flow cytometer (Amnis). Analysis was performed using IDEAS software.

[7] = Hydrodynamic diameter by Nanoparticle Tracking Analysis; format: physicochemical; details: PTX loading of 2.3 mol % and -E-c(RGDfk) loading of 5 mol %; PBS; FIG. 9C
Experimental: The mean hydrodynamic diameter of the PGA conjugates was evaluated using a real time particle analyzer (NanoSight LM20™) containing a solid-state, single mode laser diode (<20 mW, 655 nm) configured to launch a finely focused beam through a 500 μl sample chamber. The tested conjugate was dissolved in PBS to a final concentrations of 9.9 mg/ml. The samples were then injected into the chamber by syringe and allowed to equilibrate to a unit temperature (23° C.) for 30 seconds. The particles dynamics were visualized at 30 frames per second (fps) for 60 seconds at 640×480 resolution by the device CCD camera. The paths the particles take under Brownian motion over time were analyzed using Nanoparticle Tracking Analysis (NTA) software. […] Each sample was measured three times in triplicates, and the results represent the mean diameter.

[8] = HUVEC proliferation, nM PTX, FIG. 13A (5 mol % E-[c(RGDfk)2], 2.6 mol % PTX) and FIG. 13B (monocyclic), read-out: IC50, bell shaped effect, higher value
[9] = HUVEC proliferation, nM PTX, FIG. 13A (5 mol % E-[c(RGDfk)2], 2.6 mol % PTX) and FIG. 13B (monocyclic), read-out: IC50, bell shaped effect, lower value
[10] = HUVEC, 72 hours, bis-cyclic RGD compounds (X = 2), NA = did not reach IC50 in the concentrations used, 'a -- b' = bell-shaped curve, read-out: IC50 (nM) of PGA- PTX-E-[c(RGDfk)2] (SEQ ID NO: 18) 2.6 mol % PTX, 5 mol % RGD

T1 sequence (P06756 31-889 limits assumed): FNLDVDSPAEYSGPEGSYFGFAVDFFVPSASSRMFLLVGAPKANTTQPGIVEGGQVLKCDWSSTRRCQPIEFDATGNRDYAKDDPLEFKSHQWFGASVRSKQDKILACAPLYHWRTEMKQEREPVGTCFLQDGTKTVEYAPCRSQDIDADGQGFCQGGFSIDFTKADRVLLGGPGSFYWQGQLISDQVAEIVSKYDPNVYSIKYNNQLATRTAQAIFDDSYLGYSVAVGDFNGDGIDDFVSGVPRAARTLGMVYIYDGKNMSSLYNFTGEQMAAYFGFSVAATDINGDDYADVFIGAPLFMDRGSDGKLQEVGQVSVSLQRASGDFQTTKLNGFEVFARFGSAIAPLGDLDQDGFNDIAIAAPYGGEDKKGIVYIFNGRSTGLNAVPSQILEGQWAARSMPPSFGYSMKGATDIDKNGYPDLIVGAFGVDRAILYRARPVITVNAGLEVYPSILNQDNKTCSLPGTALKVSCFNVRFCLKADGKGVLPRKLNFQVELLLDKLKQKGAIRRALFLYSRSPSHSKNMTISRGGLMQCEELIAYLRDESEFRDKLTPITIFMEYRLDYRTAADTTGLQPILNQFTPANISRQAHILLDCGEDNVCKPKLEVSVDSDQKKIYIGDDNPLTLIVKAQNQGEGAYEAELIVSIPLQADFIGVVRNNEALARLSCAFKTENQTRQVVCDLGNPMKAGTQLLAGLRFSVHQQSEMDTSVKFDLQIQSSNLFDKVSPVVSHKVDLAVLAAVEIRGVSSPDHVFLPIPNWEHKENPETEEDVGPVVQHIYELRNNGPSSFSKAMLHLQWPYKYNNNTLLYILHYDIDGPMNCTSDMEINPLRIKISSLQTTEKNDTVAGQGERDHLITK
T1 sequence (P06756 891-1048 limits assumed): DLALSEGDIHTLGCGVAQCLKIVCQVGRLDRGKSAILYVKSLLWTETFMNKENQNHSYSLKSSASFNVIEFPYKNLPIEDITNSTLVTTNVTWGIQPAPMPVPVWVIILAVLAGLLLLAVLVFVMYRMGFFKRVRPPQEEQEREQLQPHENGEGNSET
T1 sequence (P05106 27-788): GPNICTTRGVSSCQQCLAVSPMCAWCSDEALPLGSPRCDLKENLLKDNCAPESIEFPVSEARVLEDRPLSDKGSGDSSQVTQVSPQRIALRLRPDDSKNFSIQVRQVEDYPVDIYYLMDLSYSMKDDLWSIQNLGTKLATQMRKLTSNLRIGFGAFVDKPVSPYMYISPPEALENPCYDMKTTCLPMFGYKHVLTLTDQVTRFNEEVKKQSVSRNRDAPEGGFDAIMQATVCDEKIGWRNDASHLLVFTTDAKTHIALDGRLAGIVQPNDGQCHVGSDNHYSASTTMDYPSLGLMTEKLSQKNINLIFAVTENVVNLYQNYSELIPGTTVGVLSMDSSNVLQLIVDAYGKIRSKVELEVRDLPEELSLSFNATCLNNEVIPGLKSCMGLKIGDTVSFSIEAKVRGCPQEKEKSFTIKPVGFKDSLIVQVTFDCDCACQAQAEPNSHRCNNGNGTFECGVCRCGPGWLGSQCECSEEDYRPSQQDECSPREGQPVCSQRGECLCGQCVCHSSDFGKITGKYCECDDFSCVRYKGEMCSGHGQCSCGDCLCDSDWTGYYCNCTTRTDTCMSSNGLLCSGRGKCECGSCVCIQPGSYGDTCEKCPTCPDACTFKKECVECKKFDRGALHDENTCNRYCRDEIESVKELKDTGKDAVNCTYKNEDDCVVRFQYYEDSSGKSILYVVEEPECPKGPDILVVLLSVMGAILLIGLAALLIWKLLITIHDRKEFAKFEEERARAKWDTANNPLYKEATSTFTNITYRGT

Substance: PGA-Copolymer -E-c(RGDfk)2-Paclitaxel [PGA-PTX-E-[c(RGDfk)2]]
- IC50 (HUVEC [1]; [8]): ~20 nM
- IC50 (HUVEC [1]; [9]): ~0.2 nM
- IC50 (HUVEC [1]; [10]): 25 nM
- inhibition of the formation of tubular structures of HUVEC (HUVEC [2]): about 40%
- PTX release kinetics compared to the other conjugates (Cathepsin B; conjugate with 3.9 mol % E-[c(RGDfk)2], 5.5 mol % PTX, pH 6, 37° C.): slightly faster release kinetics
- PTX release compared with the conjugate of 2.6 mol % PTX, 5 mol % E-[c(RGDfk)2] (Cathepsin B; conjugate with 5.5 mol % PTX, 3.9 mol % E-[c(RGDfk)2], after 48 hours): greater
- inhibition of the migration of HUVEC towards VEGF (HUVEC [3]): about 40%
- adhesion inhibition compared with the monocyclic conjugate PGA-PTX-E-c(RGDfk) (HUVEC [4]; both loadings of the bis-cyclic conjugate): inhibited the adhesion more effectively than the monocyclic RGDfk peptide conjugate
- adhesion inhibition compared with the other loading (HUVEC [4]; conjugate with 3.9 mol % E-[c(RGDfk)2] and 5.5 mol % PTX versus conjugate with 5 mol % E-[c(RGDfk)2] and 2.6 mol % PTX): more effective than the second
- IC50 ([5]; PANC02, 72 hours, bis-cyclic RGD compounds (X = 2), NA = did not reach IC50 in the concentrations used, read-out: IC50 (nM) of PGA- PTX-E-[c(RGDfk)2] (SEQ ID NO: 18) 5 mol % PTX, 3.9 mol % RGD): 650 nM
- IC50 ([5]; nM PTX, equivalent doses, FIG. 12C, read-out: IC50 of PANC02 proliferation): ~650 nM

Substance: PGA-E-[c(RGDfk)2]
- effect on HUVEC proliferation (HUVEC [1]; FIG. 12A): only at high concentrations
- IC50 (HUVEC [1]; [10]): 2900 nM
- IC50 (HUVEC [1]; HUVEC, 72 hours, bis-cyclic RGD compounds (X = 2), NA = did not reach IC50 in the concentrations used, 'a -- b' = bell-shaped curve, read-out: IC50 (nM) of PGA- PTX-E-[c(RGDfk)2] (SEQ ID NO: 18) 5 mol % PTX, 3.9 mol % RGD): 7000 nM
- accumulation of the conjugate at the tumor site [6]: able to accumulate in the tumor tissue

Substance: PGA-E-[c(RGDfk)2]-OG
- time at which conjugate-cell adherence was first observed (αvβ3 integrin receptor; ImageStream 100 imaging flow cytometer): 10 min
- extent of binding / uptake by HUVEC (αvβ3 integrin receptor; OG fluorescence, FIGS. 11B, 11C): higher uptake
- accumulation of the conjugate at the tumor site [6]: high accumulation

Substance: PGA-PTX-E-c(RGDfk)
- IC50 (HUVEC [1]; [8]): ~20 nM
- IC50 (HUVEC [1]; [9]): ~0.2 nM
- inhibition of HUVEC adhesion to fibrinogen (HUVEC [4]; equivalent concentrations of 50 μM RGD, FIG. 15): ~50%
- mean hydrodynamic diameter [7]: about 35 nm
